The subject of one assay is NMDA-induced death. The assay is described as follows: NMDA test (25 mg/kg i.v.), prevention of NMDA-induced death (neuroprotective efficacy). In kind it is in vivo, male NMRI mice. To be noted: Mus musculus, po, NMDA 25 mg/kg i.v.; for ED50: 1 h, dose protecting 50% of animals against NMDA-induced death one hour after application; for responders at 25 mg/kg: 25 mg/kg p.o. 1 h before test; for responders at 100 mg/kg: 100 mg/kg p.o. 1 h before test. Here is the method:
In order to determine the neuroprotective and anticonvulsive activity of the compounds in accordance with the invention of the general formula I, two slightly different methods were employed as follows: […]
1. In order to determine the neuroprotective efficacy NMDA at a rate of 25 mg/kg/10 ml was administered intravenously to male NMRI mice with a body weight of 20 to 25 g. As a consequence of this application the animals suffer clonic and partly tonic convulsions, which lead to death. As a criterion for the efficacy of the investigated compounds prevention of death is used.
All animals used in the investigations had free access to food and water prior to the experiments. The test and reference substances were all administered as a suspension in 0.2% agar or water, partly by the intermediary of solution promoters such as for instance PEG-400, perorally using an esophageal probe. Control animals received the same volumes of the solvent with optional solution promoters. One hour after the application of the substance NMDA was administered intravenously and the animals observed for the occurrence of convulsions.
In table 1 the results of the tests (NMDA 25 mg i.v.) performed in accordance with method 1 are compiled with dosages of 5-100 mg of the compounds in accordance with the invention per kg of body weight as compared with known NMDA-antagonists. As a percentage efficacy the percentage of surviving animals is used.
The determination of the ED50 values was performed in accordance with the method described in Lichtfield and Wilcoxon, J. Pharmacol. exp. Therapeut. 96, 99 (1949) in each case with 4 to 5 groups of 10 animals per dosage rate.

Assay [1] has as its system ovalbumin-induced anaphylactic paw edema. Briefly: Passive rat paw anaphylaxy (inhibition of edema volume; antiallergic and anti-inflammatory). Type of assay: in vivo, male Sprague-Dawley rats. To be noted: for inhibition in vivo at 25 mg/kg: 25 mg/kg p.o. 1 h before test; for inhibition in vivo at 30 mg/kg: 30 mg/kg p.o. 1 h before test. Here is the method:
The determination of the antiallergic and anti-inflammatory properties of the compounds in accordance with the invention was using a passive rat paw anaphylaxy model.
Male Sprague-Dawley rats were utilized for all tests. The animals were kept under standardized environmental conditions with free access to food and water. For sensitization to the antigen 100 μl of a mouse antiserum to ovalbumin was injected sublplantarly into the left rear paw. […] The opposite paw was for control injected subplantarly only with 100 μl of the solvent (sterile physiological NaCl solution). Overnight the investigated animals were deprived of food but had water ad lib.
Per group in all tests between 6 and 8 animals were used. One hour later the anaphylactic reaction was caused by the intravenous injection of 10 mg/10 ml/kg ovalbumin in physiological NaCl solution. […] The edema volume was calculated from the difference between the values of the two paws. The antiallergic action is in this case expressed as a percentage inhibition of the edema volume of the animals in the test group as compared with control groups undergoing parallel investigation. […] The determination of the ED50 values was performed by linear regression after log transformation of the administered doses, at least three dosage rates being employed.

Where [2] appears, read: Rattus norvegicus, po, read-out: Protective action (percentage inhibition of edema volume).
Where [3] appears, read: read-out: Protective action (percentage of surviving animals).
The mark [4] stands for this setting: Rattus norvegicus, po, p.o. 1 h before test, linear regression after log transformation of doses.

For `COc1cc2oc(=O)c3c(c2cc1OCCN1CCC(c2ccccc2)CC1)CCC3` [Example 48, 2,3-dihydro-7-methoxy-8-[2-(4-phenyl-1-piperidinyl)ethoxy]cyclopenta[c][1]benzopyran-4(1H)-one], the 50% effective dose (ED50) with NMDA-induced death turned out to be 4 mg/kg. In addition, in the assay on NMDA-induced death (5 mg/kg p.o. 1 h before test, read-out: Protective action (percentage of surviving animals)), the responders at 5 mg/kg was 100%. The inhibition in vivo at 25 mg/kg in assay [1] (setting [2]) is 35%.

As for `O=C(O)c1cc(=O)c2c(OCC(O)COc3cccc4oc(C(=O)O)cc(=O)c34)cccc2o1` [cromoglycate, reference compound], the inhibition in vivo at 2.25 mg/kg in assay [1] (Rattus norvegicus, 2.25 mg/kg, intravenous immediately prior to test, read-out: Protective action (percentage inhibition of edema volume)) was found to be 58%. This compound also showed an ED50 in assay [1] (Rattus norvegicus, intravenous treatment immediately prior to test (footnote), head says p.o.) of 1.1 mg/kg. The oral effectiveness entry in assay [1] (oral) is given as “orally not effective”.

On to `COc1cc2oc(=O)c3c(c2cc1OCCCCN1CCN(c2ccccc2)CC1)CCC3` [Example 46, 2,3-dihydro-7-methoxy-8-[4-(4-phenyl-1-piperazinyl)butyloxy]cyclopenta[c][1]benzopyran-4(1H)-one], for which the 50% effect level in the assay on NMDA-induced death (ED50) was put at a dose of 3.9 mg/kg. The responders at 25 mg/kg in the assay on NMDA-induced death (setting [3]) came out at 100%. Moreover, in assay [1] (setting [2]), the inhibition in vivo at 25 mg/kg was 35%.

For the compound `CC(C)Oc1cc2ccc(=O)oc2cc1OCCCN1CCC(c2ccccc2)CC1` [Example 12, 6-(1-methylethoxy)-7-[3-(4-phenyl-1-piperidinyl)propoxy]-2H-1-benzopyran-2-one], the responders at 25 mg/kg with NMDA-induced death (setting [3]) was found to be 62.5%. Moreover, in assay [1] (setting [2]), the inhibition in vivo at 25 mg/kg came out at 12%.

In the case of `COc1cc2oc(=O)c3c(c2cc1OCCCN1CCN(c2ccc(F)cc2)CC1)CCC3` [Example 52, 8-{3-[4-(4-fluorophenyl)-1-piperazinyl]propoxy}-2,3-dihydro-7-methoxy-cyclopenta[c][1]benzopyran-4(1H)-one], it took a dose of 1.2 mg/kg to reach the 50% effect level in the assay with NMDA-induced death (ED50). In addition, in the assay with NMDA-induced death (setting [3]), the responders at 25 mg/kg was 100%. For the same compound, in assay [1] (setting [2]), the inhibition in vivo at 25 mg/kg was determined as 74%.

Regarding `COc1cc2ccc(=O)oc2cc1OCCCN1CCN(C(c2ccc(F)cc2)c2ccc(F)cc2)CC1` [Example 8, 7-{3-[4-(bis(4-fluorophenyl)methyl)-1-piperazinyl]propoxy}-6-methoxy-2H-1-benzopyran-2-one], the responders at 100 mg/kg in the assay with NMDA-induced death (setting [3]) amounted to 62.5%. The inhibition in vivo at 25 mg/kg in assay [1] (setting [2]) turned out to be 35%.

Turning to `COc1cc2oc(=O)cc(C)c2cc1OCCCN1CCN(c2ccccc2)CC1` [Example 26, 7-methoxy-4-methyl-6-[3-(4-phenyl-1-piperazinyl)propoxy]-2H-1-benzopyran-2-one], the responders at 25 mg/kg with NMDA-induced death (setting [3]) worked out at 62.5%. The inhibition in vivo at 25 mg/kg in assay [1] (setting [2]) was found to be 66%.

For the compound `COc1cc2oc(=O)ccc2cc1OCCCN1CCC(=C(c2ccc(F)cc2)c2ccc(F)cc2)CC1` [Example 15, 6-{3-[4-(bis(4-fluorophenyl)methylene)-1-piperidinyl]propoxy}-7-methoxy-2H-1-benzopyran-2-one], the responders at 25 mg/kg in the assay on NMDA-induced death (setting [3]) stood at 50%. For the same compound, in assay [1] (setting [2]), the inhibition in vivo at 25 mg/kg was 60%.

For the compound `COc1cc2oc(=O)c(C)c(C)c2cc1OCCCN1CCN(c2ccccc2)CC1` [Example 28, 7-methoxy-3,4-dimethyl-6-[3-(4-phenyl-1-piperazinyl)propoxy]-2H-1-benzopyran-2-one], the responders at 25 mg/kg with NMDA-induced death (setting [3]) turned out to be 87.5%. The inhibition in vivo at 25 mg/kg in assay [1] (setting [2]) turned out to be 72%.

`COc1cc2oc(=O)c3c(c2cc1OCCCN1CCN(c2ccccc2)CC1)CCCC3` [Example 42, 7,8,9,10-tetrahydro-3-methoxy-2-[3-(4-phenyl-1-piperazinyl)propoxy]-6H-dibenzo[b,d]pyran-6-one]: the responders at 25 mg/kg in the assay on NMDA-induced death (setting [3]) is 100%. The inhibition in vivo at 25 mg/kg in assay [1] (setting [2]) was determined as 39%.

With `COc1cc2oc(=O)cc(-c3ccccc3)c2cc1OCCCN1CCC(c2ccccc2)CC1` [Example 40, 7-methoxy-4-phenyl-6-[3-(4-phenyl-1-piperidinyl)propoxy]-2H-1-benzopyran-2-one], the responders at 100 mg/kg in the assay on NMDA-induced death (setting [3]) is 37.5%. Moreover, the inhibition in vivo at 25 mg/kg in assay [1] (setting [2]) is 27%.

Consider `Cc1c(C)c2ccc(OCCCN3CCN(Cc4ccc(Cl)cc4)CC3)cc2oc1=O` [picumast, reference compound], for which the inhibition in vivo at 25 mg/kg in assay [1] (setting [2]) was -21%.

`COc1cc2oc(=O)c3c(c2cc1OCCCN1CCN(c2ccccc2)CC1)CCC3` [Example 45, 2,3-dihydro-7-methoxy-8-[3-(4-phenyl-1-piperazinyl)propoxy]cyclopenta[c][1]benzopyran-4(1H)-one]: the median effective dose (ED50) with NMDA-induced death came out at 1.2 mg/kg. In addition, in the assay on NMDA-induced death (setting [3]), the responders at 25 mg/kg is 100%. Also, in assay [1] (setting [2]), the inhibition in vivo at 25 mg/kg came out at 69%.

Consider `COc1cc2ccc(=O)oc2cc1OCCCN1CCC(C(O)(c2ccccc2)c2ccccc2)CC1` [Example 17, 7-{3-[4-(diphenylhydroxymethyl)-1-piperidinyl]-propoxy}-6-methoxy-2H-1-benzopyran-2-one], for which, in the assay with NMDA-induced death (setting [3]), the responders at 100 mg/kg was 37.5%. In addition, in assay [1] (setting [2]), the inhibition in vivo at 25 mg/kg turned out to be 83%.

As for `CN1CCC(=C2c3ccccc3CC(=O)c3sccc32)CC1` [ketotifen, reference compound], in assay [1] (setting [2]), the inhibition in vivo at 30 mg/kg was found to be 77%. The 50% effective dose (ED50) in assay [1] (setting [4]) was 5.6 mg/kg.

For `COc1ccc(CCN2CCC(Nc3nc4ccccc4n3Cc3ccc(F)cc3)CC2)cc1` [astemizole, reference compound], the inhibition in vivo at 10 mg/kg in assay [1] (Rattus norvegicus, po, 10 mg/kg p.o. 1 h before test, read-out: Protective action (percentage inhibition of edema volume)) turned out to be 70%. In assay [1] (setting [4]), it took a dose of 3.1 mg/kg to reach the 50% effect level (ED50).

As to `COc1cc2ccc(=O)oc2cc1OCCCN1CCC(C(O)(c2ccc(F)cc2)c2ccc(F)cc2)CC1` [Example 14, 7-{3-[4-(bis(4-fluorophenyl)hydroxymethyl)-1-piperidinyl]propoxy}-6-methoxy-2H-1-benzopyran-2-one], the responders at 25 mg/kg with NMDA-induced death (setting [3]) is 37.5%. Also, the “Action remains for a period with full effect” value in assay [1] (25 mg/kg p.o.) stood at 24 h. Also, the inhibition in vivo at 25 mg/kg in assay [1] (setting [2]) is 81%. In assay [1] (setting [4]), the 50% effect level (ED50) was put at a dose of 2.4 mg/kg.

`COc1cc2oc(=O)ccc2cc1OCC(O)CN1CCC(C(O)(c2ccc(F)cc2)c2ccc(F)cc2)CC1` (racemic) [Example 25, (±)-6-{3-[4-(bis(4-fluorophenyl)hydroxymethyl)-1-piperidinyl]-2-hydroxypropoxy}-7-methoxy-2H-1-benzopyran-2-one] had a 50% effective dose (ED50) with NMDA-induced death of 77 mg/kg. Further, the responders at 100 mg/kg in the assay on NMDA-induced death (setting [3]) stood at 100%. Besides, in assay [1] (setting [2]), the inhibition in vivo at 25 mg/kg is 43%.

Take `CN(C)CCOC(c1ccccc1)c1ccccc1` [diphenhydramine, reference compound]: the inhibition in vivo at 100 mg/kg in assay [1] (Rattus norvegicus, po, 100 mg/kg p.o. 1 h before test, read-out: Protective action (percentage inhibition of edema volume)) stood at 54%. In assay [1] (setting [4]), this compound showed a 50% effective dose (ED50) of 73 mg/kg.

For the compound `O=c1[nH]c2ccccc2n1CCCN1CCN(C(c2ccccc2)c2ccccc2)CC1` [oxatomide, reference compound], the inhibition in vivo at 30 mg/kg in assay [1] (setting [2]) was determined as 75%. The compound also registered a median effective dose (ED50) in assay [1] (setting [4]) of 7.3 mg/kg.

As for `COc1cc2oc(=O)ccc2cc1OCCCN1CCC(C(c2ccccc2)c2ccccc2)CC1` [Example 16, 6-{3-[4-(diphenylmethyl)-1-piperidinyl]propoxy}-7-methoxy-2H-1-benzopyran-2-one], the responders at 100 mg/kg in the assay with NMDA-induced death (setting [3]) stood at 75%. In addition, in assay [1] (setting [2]), the inhibition in vivo at 25 mg/kg was found to be 60%.

For the compound `COc1cc2oc(=O)cc(C)c2cc1OCCCN1CCC(c2ccccc2)CC1` [Example 27, 7-methoxy-4-methyl-6-[3-(4-phenyl-1-piperidinyl)propoxy]-2H-1-benzopyran-2-one], in the assay on NMDA-induced death (setting [3]), the responders at 25 mg/kg amounted to 50%. Further, the inhibition in vivo at 25 mg/kg in assay [1] (setting [2]) is 40%.

As to `COc1cc2oc(=O)cc(-c3ccccc3)c2cc1OCCCN1CCN(c2ccccc2)CC1` [Example 39, 7-methoxy-4-phenyl-6-[3-(4-phenyl-1-piperazinyl)propoxy]-2H-1-benzopyran-2-one], the responders at 25 mg/kg with NMDA-induced death (setting [3]) was 62.5%. For the same compound, the inhibition in vivo at 25 mg/kg in assay [1] (setting [2]) turned out to be 26%.
